One assay concerns the target T1, ALK (Homo sapiens, UniProt Q9UM73).
T1 construct: host or cells: baculovirus expression system
Kind of assay: ALK Kinase Assay (ELISA/TRF, PLC-γ substrate). Format: biochemical. The conditions noted are these: read-out: ALK Potency. The essentials: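 Time-resolved fluorescence ELISA using Eu-N1 PT66 antibody to detect phosphorylated PLC-γ (coated at 10 μg/mL). Enzyme at 30 ng/ml ALK; 15 min incubation, 37° C.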
(In general: An ELISA detects its analyte on a solid surface through an enzyme-linked reagent.)

A further assay addresses T2, JAK2 (Homo sapiens, UniProt O60674).
T2 construct: host or cells: baculovirus expression system
Kind of assay: Recombinant Human JAK2 Kinase Assay (TRF). The note with it: read-out: JAK2 Potency. Format: biochemical. The essentials: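 TRF read-out: Eu-N1 PY100 anti-phosphotyrosine antibody detects product. Enzyme is baculovirus-expressed JAK2 at 15 ng/ml; substrate is a biotinyl 15-mer peptide bound to Neutravidin-coated wells. Buffer 20 mM HEPES pH 7.2, 0.2 μM ATP, 1 mM MnCl2, 0.1% BSA, 2.5% DMSO final; 20 min, RT.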

The mark [1] stands for this setting: ALK kinase inhibition, 1 μM ATP.
Where [2] appears, read: JAK2 kinase inhibition, 0.2 μM ATP.

pIC50: −log10 of the molar value. Where two headings read alike, the source gives them in different places.

T1 sequence (Q9UM73 19-1620): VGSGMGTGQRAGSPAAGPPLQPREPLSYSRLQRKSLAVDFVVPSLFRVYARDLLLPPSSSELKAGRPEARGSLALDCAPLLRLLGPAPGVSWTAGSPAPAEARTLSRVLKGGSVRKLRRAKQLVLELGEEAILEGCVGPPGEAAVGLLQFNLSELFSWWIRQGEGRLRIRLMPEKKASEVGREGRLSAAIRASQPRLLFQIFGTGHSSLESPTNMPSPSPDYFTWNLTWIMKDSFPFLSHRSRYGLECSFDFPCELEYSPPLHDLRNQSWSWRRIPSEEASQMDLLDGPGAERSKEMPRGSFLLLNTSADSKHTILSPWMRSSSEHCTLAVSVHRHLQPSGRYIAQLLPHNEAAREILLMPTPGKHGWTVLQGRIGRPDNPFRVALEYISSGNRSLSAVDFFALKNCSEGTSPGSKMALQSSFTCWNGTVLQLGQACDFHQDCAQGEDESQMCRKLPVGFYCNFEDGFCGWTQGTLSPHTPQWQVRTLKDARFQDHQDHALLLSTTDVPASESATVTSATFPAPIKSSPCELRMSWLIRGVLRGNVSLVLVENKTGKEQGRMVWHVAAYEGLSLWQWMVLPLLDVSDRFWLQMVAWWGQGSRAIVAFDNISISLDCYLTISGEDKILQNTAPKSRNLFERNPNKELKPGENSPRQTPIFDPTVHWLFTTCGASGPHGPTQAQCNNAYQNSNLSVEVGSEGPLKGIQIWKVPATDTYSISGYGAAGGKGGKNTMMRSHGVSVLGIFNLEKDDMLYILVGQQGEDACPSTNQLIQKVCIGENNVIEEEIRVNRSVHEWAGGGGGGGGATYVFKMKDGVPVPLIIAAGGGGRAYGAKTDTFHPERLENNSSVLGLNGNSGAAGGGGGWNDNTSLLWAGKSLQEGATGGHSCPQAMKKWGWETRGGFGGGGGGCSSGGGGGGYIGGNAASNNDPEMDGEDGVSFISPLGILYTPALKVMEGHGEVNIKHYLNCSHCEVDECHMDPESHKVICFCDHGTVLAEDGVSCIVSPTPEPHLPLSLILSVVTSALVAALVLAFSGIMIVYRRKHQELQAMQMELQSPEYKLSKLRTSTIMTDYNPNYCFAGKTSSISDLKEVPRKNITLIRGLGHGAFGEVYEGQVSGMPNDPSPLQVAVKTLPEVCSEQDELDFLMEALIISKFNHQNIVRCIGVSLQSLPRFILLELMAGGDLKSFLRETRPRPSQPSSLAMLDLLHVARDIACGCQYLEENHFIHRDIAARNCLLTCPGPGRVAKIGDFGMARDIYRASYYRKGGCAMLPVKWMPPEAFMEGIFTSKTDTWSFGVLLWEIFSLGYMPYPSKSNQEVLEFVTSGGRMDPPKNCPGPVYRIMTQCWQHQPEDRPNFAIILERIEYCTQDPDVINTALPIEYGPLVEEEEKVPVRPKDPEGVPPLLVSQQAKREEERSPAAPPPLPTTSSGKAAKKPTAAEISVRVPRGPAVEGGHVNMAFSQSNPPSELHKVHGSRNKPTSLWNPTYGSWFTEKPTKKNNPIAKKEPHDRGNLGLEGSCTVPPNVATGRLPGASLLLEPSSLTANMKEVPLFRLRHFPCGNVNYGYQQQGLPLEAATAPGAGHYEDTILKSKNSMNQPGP
T2 sequence (O60674 whole entry): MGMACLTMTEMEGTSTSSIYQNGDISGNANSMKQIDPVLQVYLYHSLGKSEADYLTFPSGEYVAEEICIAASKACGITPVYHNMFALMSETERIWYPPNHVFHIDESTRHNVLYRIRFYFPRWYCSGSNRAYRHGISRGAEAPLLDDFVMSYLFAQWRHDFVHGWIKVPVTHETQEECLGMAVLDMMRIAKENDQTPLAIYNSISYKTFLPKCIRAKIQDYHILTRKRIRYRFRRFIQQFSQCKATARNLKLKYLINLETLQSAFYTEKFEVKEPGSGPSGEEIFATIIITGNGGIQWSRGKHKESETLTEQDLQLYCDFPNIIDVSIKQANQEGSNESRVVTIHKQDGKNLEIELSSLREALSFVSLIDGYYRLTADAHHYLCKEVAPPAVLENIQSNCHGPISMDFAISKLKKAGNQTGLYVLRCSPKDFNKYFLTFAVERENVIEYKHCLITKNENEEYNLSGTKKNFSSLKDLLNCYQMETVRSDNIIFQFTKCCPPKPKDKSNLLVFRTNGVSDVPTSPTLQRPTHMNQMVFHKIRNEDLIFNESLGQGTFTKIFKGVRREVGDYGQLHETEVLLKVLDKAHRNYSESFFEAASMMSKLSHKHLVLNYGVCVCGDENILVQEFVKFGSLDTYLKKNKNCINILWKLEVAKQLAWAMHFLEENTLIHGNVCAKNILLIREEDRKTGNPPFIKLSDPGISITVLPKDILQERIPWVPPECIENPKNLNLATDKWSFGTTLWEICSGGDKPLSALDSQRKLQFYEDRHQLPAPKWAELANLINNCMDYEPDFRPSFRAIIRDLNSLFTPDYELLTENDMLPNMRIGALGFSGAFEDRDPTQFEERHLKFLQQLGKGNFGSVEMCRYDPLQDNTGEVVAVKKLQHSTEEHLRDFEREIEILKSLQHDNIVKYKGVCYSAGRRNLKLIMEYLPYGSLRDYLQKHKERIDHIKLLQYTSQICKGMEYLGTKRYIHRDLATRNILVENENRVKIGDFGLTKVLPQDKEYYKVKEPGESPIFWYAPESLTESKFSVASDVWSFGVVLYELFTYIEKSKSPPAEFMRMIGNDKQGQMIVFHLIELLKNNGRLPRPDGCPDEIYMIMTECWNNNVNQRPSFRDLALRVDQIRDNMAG

With `CN1CCN(C)C(c2ccc(Nc3ncc4ccc(-c5cccc(S(=O)(=O)N6CCOCC6)c5)n4n3)cc2)C1=O` (stereo not shown) [Example 1075, 1,4-Dimethyl-3-(4-{7-[3-(morpholine-4-sulfonyl)-phenyl]-pyrrolo[2,1-f][1,2,4]triazin-2-ylamino}-phenyl)-piperazin-2-one], the figures for the pIC50 at ALK (setting [1]) and on JAK2 (setting [2]) were less than 5.00 and more than 7.00, respectively.
Consider `COc1cc2c(cc1Nc1ncc3ccc(-c4ccccc4OC)n3n1)CCC1(CCN(C)CC1)O2` [Example 997, 7-methoxy-N-[7-(2-methoxyphenyl)pyrrolo[2,1-f][1,2,4]triazin-2-yl]-1′-methyl-3,4-dihydrospiro[chromene-2,4′-piperidin]-6-amine], for which the pIC50 at ALK (setting [1]) was more than 7.00; on JAK2 (setting [2]) it was 6.00 to 7.00.
On to `CC(C)(C)NS(=O)(=O)c1cccc(-c2ccc3cnc(Nc4ccc5nc(CN6CCN(CCO)CC6)[nH]c5c4)nn23)c1` [Example 1520, N-tert-Butyl-3-(2-{2-[4-(2-hydroxy-ethyl)-piperazin-1-ylmethyl]-3H-benzimidazol-5-ylamino}-pyrrolo[2,1-f][1,2,4]triazin-7-yl)-benzenesulfonamide], for which the pIC50 is 6.00 to 7.00 at ALK (ALK Kinase Inhibition) and more than 7.00 on JAK2 (JAK2 Kinase Inhibition).
On to `COc1cc(Nc2ncc3ccc(-c4ccccc4)n3n2)cc(OC)c1OC` [Example 13, (7-Phenyl-pyrrolo[2,1-f][1,2,4]triazin-2-yl)-(3,4,5-trimethoxy-phenyl)amine], for which the pIC50 on ALK (ALK Kinase Inhibition) was 6.00 to 7.00; at JAK2 (JAK2 Kinase Inhibition), more than 7.00.
Regarding `Clc1cccc(-c2ccc3cnc(Nc4ccc(N5CCCC5)cc4)nn23)c1` [Example 167, [7-(3-Chloro-phenyl)-pyrrolo[2,1-f][1,2,4]triazin-2-yl]-(4-pyrrolidin-1-yl-phenyl)-amine], the pIC50 on ALK (ALK Kinase Inhibition) was 5.00 to 6.00; at JAK2 (JAK2 Kinase Inhibition), more than 7.00.
Turning to `c1cncc(-c2ccc3cnc(Nc4ccn(CCN5CCOCC5)n4)nn23)c1` [Example 1184, [1-(2-Morpholin-4-yl-ethyl)-1H-pyrazol-3-yl]-(7-pyridin-3-yl-pyrrolo[2,1-f][1,2,4]triazin-2-yl)-amine], the pIC50 is less than 5.00 on ALK (setting [1]) and more than 7.00 on JAK2 (setting [2]).
For the compound “[5-Bromo-7-(4-methanesulfonyl-phenyl)-pyrrolo[2,1-f][1,2,4]triazin-2-yl]-(4-morpholin-4-yl-phenyl)-amine [Example 99]”, the pIC50 on ALK (ALK Kinase Inhibition) was less than 5.00; at JAK2 (JAK2 Kinase Inhibition) it was more than 7.00.
For the compound `COc1cc(N2CCC(N3CCN(C)CC3)CC2)ccc1Nc1ncc2cc3ccccc3n2n1` [Example 262, {2-Methoxy-4-[4-(4-methyl-piperazin-1-yl)-piperidin-1-yl]-phenyl}-[1,2,4]triazino[1,6-a]indol-2-yl-amine], the pIC50 at ALK (ALK Kinase Inhibition) was 6.00 to 7.00; at JAK2 (JAK2 Kinase Inhibition), 5.00 to 6.00.
Turning to `Cc1ccc(S(=O)(=O)N(C)C)cc1-c1ccc2cnc(Nc3ccc(N4CCN(C)CC4)cc3)nn12` [Example 74, 4,N,N-Trimethyl-3-{2-[4-(4-methyl-piperazin-1-yl)-phenylamino]-pyrrolo[2,1-f][1,2,4]triazin-7-yl}-benzenesulfonamide], the pIC50 was 6.00 to 7.00 at ALK (ALK Kinase Inhibition) and more than 7.00 on JAK2 (JAK2 Kinase Inhibition).
On to `CCN1CC=C(c2ccc(Nc3ncc4ccc(-c5ccccc5N(C)S(C)(=O)=O)n4n3)c(OC)c2)CC1` [Example 744, N-(2-{2-[4-(1-Ethyl-1,2,3,6-tetrahydro-pyridin-4-yl)-2-methoxy-phenylamino]-pyrrolo[2,1-f][1,2,4]triazin-7-yl}-phenyl)-N-methyl-methanesulfonamide], for which the results for the pIC50 at ALK (setting [1]) and at JAK2 (setting [2]) were more than 7.00 and 5.00 to 6.00, respectively.
In the case of `COc1cc(C2CCN(CC(N)=O)CC2)ccc1Nc1ncc2ccc(-c3cccc(S(=O)(=O)NC(C)(C)C)c3)n2n1` [Example 693, 2-(4-{4-[7-(3-tert-Butylsulfamoylphenyl)pyrrolo[2,1-f][1,2,4]triazin-2-ylamino]-3-methoxyphenyl)piperidin-1-yl)-acetamide], the pIC50 at ALK (setting [1]) is more than 7.00; on JAK2 (setting [2]), 6.00 to 7.00.
On to `O=S(=O)(c1cccc(-c2ccc3cnc(Nc4ccc5nc(CO)[nH]c5c4)nn23)c1)N1CCOCC1` [Example 1068, (6-{7-[3-(Morpholine-4-sulfonyl)-phenyl]-pyrrolo[2,1-f][1,2,4]triazin-2-ylamino}-1H-benzoimidazol-2-yl)-methanol], for which the values for the pIC50 on ALK (setting [1]) and at JAK2 (setting [2]) were 5.00 to 6.00 and more than 7.00, respectively.
In the case of `CN1CCN(c2ccc(Nc3ncc4ccc(-c5ccc(CNCCS(C)(=O)=O)o5)n4n3)cc2)CC1` [Example 1200, (7-{5-[(2-Methanesulfonyl-ethylamino)-methyl]-furan-2-yl}-pyrrolo[2,1-f][1,2,4]triazin-2-yl)-[4-(4-methyl-piperazin-1-yl)-phenyl]-amine], the pIC50 on ALK (setting [1]) is 6.00 to 7.00; at JAK2 (setting [2]) it was more than 7.00.
In the case of “2-Methyl-propane-2-sulfonic acid (3-{2-[4-(4-diethylamino-piperidin-1-yl)-phenylamino]-pyrrolo[2,1-f][1,2,4]triazin-7-yl}-phenyl)-amide [Example 1217]”, the pIC50 at ALK (setting [1]) and on JAK2 (setting [2]) was more than 7.00 in each case.
On to `COc1cc(N2CCN(C)CC2)ccc1Nc1ncc2ccc(-c3ccc(C#N)nc3)n2n1` [Example 77, 5-{2-[2-Methoxy-4-(4-methyl-piperazin-1-yl)-phenylamino]-pyrrolo[2,1-f][1,2,4]triazin-7-yl}-pyridine-2-carbonitrile], for which the pIC50 at ALK (ALK Kinase Inhibition) is 6.00 to 7.00; at JAK2 (JAK2 Kinase Inhibition) it was more than 7.00.
On to `COc1ccc(-c2ccc3cnc(Nc4ccc(C5CCN(CC(N)=O)CC5)c(C)c4)nn23)cn1` [Example 934, 2-(4-{4-[7-(6-Methoxy-pyridin-3-yl)-pyrrolo[2,1-f][1,2,4]triazin-2-ylamino]-2-methyl-phenyl}-piperidin-1-yl)-acetamide], for which the pIC50 at ALK (setting [1]) and at JAK2 (setting [2]) was more than 7.00 throughout.
In the case of `CN1CCN(c2ccc(Nc3ncc4ccc(-c5ccc6c(c5)OCCO6)n4n3)cc2)CC1` [Example 8, [7-(2,3-Dihydro-benzo[1,4]dioxin-6-yl)-pyrrolo[2,1-f][1,2,4]triazin-2-yl]-[4-(4-methyl-piperazin-1-yl)-phenyl]-amine], the pIC50 on ALK (ALK Kinase Inhibition) and on JAK2 (JAK2 Kinase Inhibition) was more than 7.00 throughout.
Turning to `COc1ccc(Cl)cc1-c1ccc2cnc(Nc3ccc(N4CCC(N5CCOCC5)CC4)cc3)nn12` [Example 335, [7-(5-Chloro-2-methoxy-phenyl)-pyrrolo[2,1-f][1,2,4]triazin-2-yl]-[4-(4-morpholin-4-yl-piperidin-1-yl)-phenyl]-amine], the pIC50 at ALK (ALK Kinase Inhibition) was 6.00 to 7.00; at JAK2 (JAK2 Kinase Inhibition), more than 7.00.
Take `COc1cc(N2CCC(N3CC[C@@H](O)C3)CC2)ccc1Nc1ncc2ccc(-c3ccccc3N(C)S(C)(=O)=O)n2n1` [Example 478, N-[2-(2-{4-[4-((R)-3-Hydroxy-pyrrolidin-1-yl)-piperidin-1-yl]-2-methoxy-phenylamino}-pyrrolo[2,1-f][1,2,4]triazin-7-yl)-phenyl]-N-methyl-methanesulfonamide]: the pIC50 at ALK (setting [1]) and at JAK2 (setting [2]) was more than 7.00 each time.
As for `COc1cc(C2CCN(CCO)CC2)ccc1Nc1ncc2ccc(-c3cccc(S(=O)(=O)NC(C)(C)C)c3)n2n1` [Example 694, N-tert-Butyl-3-(2-{4-[1-(2-hydroxy-ethyl)-piperidin-4-yl]-2-methoxy-phenylamino}-pyrrolo[2,1-f][1,2,4]triazin-7-yl)-benzenesulfonamide], the pIC50 on ALK (setting [1]) was more than 7.00; on JAK2 (setting [2]), 6.00 to 7.00.
For `COc1ccccc1-c1ccc2cnc(Nc3ccc4c(c3OC)CC(N3CCOCC3)CCC4)nn12` (racemic) [Example 768, (±)-1-Methoxy-8-morpholin-4-yl-6,7,8,9-tetrahydro-5H-enzocyclohepten-2-yl)-[7-(2-methoxy-phenyl)-pyrrolo[2,1-f][1,2,4]triazin-2-yl]-amine], the pIC50 on ALK (setting [1]) and on JAK2 (setting [2]) was 6.00 to 7.00 each time.
Regarding `Cn1cc(-c2ccc3cnc(Nc4cccc(OCCN5CCOCC5)c4)nn23)cn1` [Example 1004, [7-(1-Methyl-1H-pyrazol-4-yl)-pyrrolo[2,1-f][1,2,4]triazin-2-yl]-[3-(2-morpholin-4-yl-ethoxy)-phenyl]-amine], the pIC50 on ALK (setting [1]) was 5.00 to 6.00; on JAK2 (setting [2]) it was more than 7.00.
Regarding `COc1ccccc1-c1ccc2cnc(Nc3ccc(C4CCN(C[C@H](O)CO)CC4)cc3)nn12` [Example 1125, (S)-3-(4-{4-[7-(2-Methoxy-phenyl)-pyrrolo[2,1-f][1,2,4]triazin-2-ylamino]-phenyl}-piperidin-1-yl)-propane-1,2-diol], the pIC50 on ALK (setting [1]) and on JAK2 (setting [2]) was more than 7.00 in each case.
With `Cn1cc(-c2ccc3cnc(Nc4cccc(N5CCCC5=O)c4)nn23)cn1` [Example 967, 1-{3-[7-(1-Methyl-1H-pyrazol-4-yl)-\pyrrolo[2,1-f][1,2,4]triazin-2-ylamino]-phenyl}-pyrrolidin-2-one], the pIC50 at ALK (setting [1]) was 5.00 to 6.00; on JAK2 (setting [2]), more than 7.00.
As to `COc1cc(N2CCN(C[C@@H](C)O)CC2)ccc1Nc1ncc2ccc(-c3cc(Cl)ccc3OC)n2n1` [Example 756, (R)-1-(4-{4-[7-(5-Chloro-2-methoxy-phenyl)-pyrrolo[2,1-f][1,2,4]triazin-2-ylamino]-3-methoxy-phenyl}-piperazin-1-yl)-propan-2-ol], the pIC50 on ALK (setting [1]) and at JAK2 (setting [2]) was more than 7.00 throughout.
Turning to `COc1cc(N2CCCC(N3CCN(C(=O)OCc4ccccc4)CC3)C2)ccc1Nc1ncc2ccc(-c3ccccc3OC)n2n1` (stereo not shown) [Example 234, 4-(1-{3-Methoxy-4-[7-(2-methoxy-phenyl)-pyrrolo[2,1-f][1,2,4]triazin-2-ylamino]-phenyl}-piperidin-3-yl)-piperazine-1-carboxylic acid benzyl ester], the pIC50 at ALK (ALK Kinase Inhibition) was 6.00 to 7.00; at JAK2 (JAK2 Kinase Inhibition), 5.00 to 6.00.

For the origin of these results see patent US8471005B2 (Cephalon, Inc., priority 2008, dated 2013).
